Results reported in publication PMC6193938, “Characterization of a novel AICARFT inhibitor which potently elevates ZMP and has anti-tumor activity in murine models” (Scientific Reports, 2018).
Read-outs that look alike come from different tables or passages of the source.

How the values were obtained:
PLK3 = target: T1, PLK3 (Homo sapiens, UniProt Q9H4B4); assay: CEREP protein kinase assay; assay type: biochemical
T1 construct: purchased CEREP Panlabs (Eurofins)

cell lines of Table 1 = assay: MS detection of ZMP in cultured cells, average over cell lines; assay type: cell-based; conditions: Homo sapiens
Description: (§1) Cells lines were acquired from cell banks, see supplemental material, grown using the cell banks recommended culture conditions (Supplemental Table 3). In some experiments noted “low folate” the cells were washed and grown in folate free RPMI-1640 media (Gibco #27016-021) supplemented with 5 ml 1 M Hepes, 5 ml 100 mM Na pyruvate, 2.5 mg/ml glucose and 10% defined FBS (Hyclone #SH30070) per 500 mL media for 5–7 days to deplete intracellular folate levels prior to the start of the experiment. Where noted, cells were maintained in complete “high folate” RPMI-1640 media (ATCC #30-2001) with 10% defined FBS to contrast with the low folate conditions.
ZMP was detected in cultured cells via mass spec analysis. Cells were plated in 96-well plates at 25,000 cells per well in 100 µL with either high or low folate RPMI media and incubated overnight at 37 °C with 5% CO2. Cells were treated with inhibitor compounds for 16 hours, 0.5% DMSO final concentration. […]
ZMP, AICAr and dUMP were detected using positive ion TurboIonSpray® multiple reaction monitoring mode and the data were processed with AB Sciex MultiQuant™. Back-calculated ZMP concentrations were fit to a four-parameter logistic equation using ACTIVITYBASE 4.0 to determine EC50 values relative to the maximum observed metabolite levels.

ALK = target: T2, ALK (Homo sapiens, UniProt Q9UM73); assay: CEREP protein kinase assay; assay type: biochemical
T2 construct: purchased CEREP Panlabs (Eurofins)

CDK4 = target: T3, CDK4 (Homo sapiens, UniProt P11802); assay: CEREP protein kinase assay; assay type: biochemical
T3 construct: purchased CEREP Panlabs (Eurofins)

RON = target: T4, RON (Homo sapiens, UniProt Q04912); assay: CEREP protein kinase assay; assay type: biochemical
T4 construct: purchased CEREP Panlabs (Eurofins)
T4 sequence (Q04912 25-1400): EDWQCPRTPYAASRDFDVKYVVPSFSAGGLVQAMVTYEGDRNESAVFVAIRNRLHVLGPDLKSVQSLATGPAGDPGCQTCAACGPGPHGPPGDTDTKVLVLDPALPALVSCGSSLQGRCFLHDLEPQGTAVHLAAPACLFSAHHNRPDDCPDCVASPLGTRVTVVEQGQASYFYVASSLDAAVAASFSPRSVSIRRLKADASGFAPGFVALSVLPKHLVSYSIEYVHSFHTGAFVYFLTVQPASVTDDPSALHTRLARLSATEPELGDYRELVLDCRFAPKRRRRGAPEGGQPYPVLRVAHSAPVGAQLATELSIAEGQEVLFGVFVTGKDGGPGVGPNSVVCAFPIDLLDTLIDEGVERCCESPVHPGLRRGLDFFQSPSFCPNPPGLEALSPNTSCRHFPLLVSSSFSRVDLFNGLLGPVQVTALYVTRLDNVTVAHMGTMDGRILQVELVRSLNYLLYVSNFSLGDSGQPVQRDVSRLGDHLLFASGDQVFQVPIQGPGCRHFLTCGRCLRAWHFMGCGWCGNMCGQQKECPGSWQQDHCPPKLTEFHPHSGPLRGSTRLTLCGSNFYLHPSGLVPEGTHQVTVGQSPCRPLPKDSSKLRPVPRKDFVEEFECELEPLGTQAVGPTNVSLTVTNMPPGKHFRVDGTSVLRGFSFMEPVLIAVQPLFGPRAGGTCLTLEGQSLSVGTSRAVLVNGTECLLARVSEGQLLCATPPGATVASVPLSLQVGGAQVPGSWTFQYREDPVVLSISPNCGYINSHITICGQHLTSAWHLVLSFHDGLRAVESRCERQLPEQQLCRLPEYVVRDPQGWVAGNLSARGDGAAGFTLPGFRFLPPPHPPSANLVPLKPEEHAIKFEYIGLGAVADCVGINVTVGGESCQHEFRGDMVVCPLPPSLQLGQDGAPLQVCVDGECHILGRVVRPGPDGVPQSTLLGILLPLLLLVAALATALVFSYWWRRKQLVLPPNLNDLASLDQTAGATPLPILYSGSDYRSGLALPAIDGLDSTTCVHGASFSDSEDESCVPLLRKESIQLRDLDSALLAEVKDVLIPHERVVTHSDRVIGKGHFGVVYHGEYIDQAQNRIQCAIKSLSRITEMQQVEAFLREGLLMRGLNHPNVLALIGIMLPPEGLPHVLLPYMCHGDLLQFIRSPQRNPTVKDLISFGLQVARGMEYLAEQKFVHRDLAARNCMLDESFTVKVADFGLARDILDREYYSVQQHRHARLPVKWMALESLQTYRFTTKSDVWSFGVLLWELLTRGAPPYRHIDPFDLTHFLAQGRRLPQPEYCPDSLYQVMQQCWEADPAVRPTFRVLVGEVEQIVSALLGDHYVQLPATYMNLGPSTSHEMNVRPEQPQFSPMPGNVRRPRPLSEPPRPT

FGFR1 = target: T5, FGFR1 (Homo sapiens, UniProt P11362); assay: CEREP protein kinase assay; assay type: biochemical
T5 construct: purchased CEREP Panlabs (Eurofins)
T5 sequence (P11362 22-822): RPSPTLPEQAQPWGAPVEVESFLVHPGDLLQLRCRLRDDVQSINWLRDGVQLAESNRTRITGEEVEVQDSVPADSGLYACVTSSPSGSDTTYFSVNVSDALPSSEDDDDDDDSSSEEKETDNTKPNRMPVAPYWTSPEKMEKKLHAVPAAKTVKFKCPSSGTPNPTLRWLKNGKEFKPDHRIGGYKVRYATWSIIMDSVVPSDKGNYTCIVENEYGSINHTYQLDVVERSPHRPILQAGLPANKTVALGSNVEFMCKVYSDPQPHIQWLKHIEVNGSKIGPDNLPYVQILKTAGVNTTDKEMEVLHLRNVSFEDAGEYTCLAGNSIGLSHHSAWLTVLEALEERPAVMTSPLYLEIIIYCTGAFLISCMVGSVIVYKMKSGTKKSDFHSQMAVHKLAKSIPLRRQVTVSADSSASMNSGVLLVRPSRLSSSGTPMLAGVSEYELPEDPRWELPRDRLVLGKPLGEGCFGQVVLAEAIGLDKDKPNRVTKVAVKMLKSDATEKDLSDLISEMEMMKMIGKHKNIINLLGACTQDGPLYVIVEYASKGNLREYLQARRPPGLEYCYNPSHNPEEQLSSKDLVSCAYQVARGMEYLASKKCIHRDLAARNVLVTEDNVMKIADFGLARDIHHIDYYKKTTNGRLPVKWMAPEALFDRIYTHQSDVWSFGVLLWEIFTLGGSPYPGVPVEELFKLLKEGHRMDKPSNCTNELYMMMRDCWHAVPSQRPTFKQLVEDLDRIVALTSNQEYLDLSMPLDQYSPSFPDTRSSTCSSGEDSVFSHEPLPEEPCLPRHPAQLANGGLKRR

P38a = target: T6, P38a (Homo sapiens, UniProt Q16539); assay: CEREP protein kinase assay; assay type: biochemical
T6 construct: purchased CEREP Panlabs (Eurofins)
T6 sequence (Q16539 whole entry): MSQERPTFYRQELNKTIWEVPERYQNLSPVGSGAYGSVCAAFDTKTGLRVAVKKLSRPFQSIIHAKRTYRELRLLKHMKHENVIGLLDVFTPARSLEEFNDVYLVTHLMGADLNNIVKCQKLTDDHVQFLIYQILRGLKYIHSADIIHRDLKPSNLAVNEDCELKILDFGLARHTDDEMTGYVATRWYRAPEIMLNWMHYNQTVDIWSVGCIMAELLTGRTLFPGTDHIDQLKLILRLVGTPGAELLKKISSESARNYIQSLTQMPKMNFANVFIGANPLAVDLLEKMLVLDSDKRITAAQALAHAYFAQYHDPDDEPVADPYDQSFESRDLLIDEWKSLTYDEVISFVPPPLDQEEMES

AMPKA = assay: CEREP protein kinase assay; assay type: biochemical
MDA-MB-231 = assay: In vitro proliferation assay, Cell Titer Glo; assay type: cell-based; conditions: Homo sapiens
Text: Cell Titer Glo measures ATP, thus the IC50s represent both the effect on purine production and cell proliferation, which are related. […] Folates are actively taken up in cells by reduced folate carrier (SLC19A1), proton-coupled folate transporter (SLC46A1), and the FOLR1 folate receptor[17]. Once inside the cell, folates are trapped by polyglutamation catalyzed by folylpolyglutamate synthetase (FPGS). […] Gene expression data for ATIC, GART, APRT, HPRT, FOLR1, SLC19A1, SLC46A1 & FPGS are shown in Fig. 2, since these genes were anticipated to predict sensitivity. […] The MDA-MB-231 cell line is reduced folate carrier (SLC19A1) negative due to epigenetic silencing.
(§2) Cells were cultured using recommended culture conditions unless noted otherwise (Supplemental Table 3). Cells were plated, dosed with compound and incubated at 37 °C for approximately 2 doubling times as determined for each cell line. Cell Titer Glo (Promega) assay was used to measure proliferation according to manufacturer’s recommendations by measuring luminescence with Flexstation3 (Molecular Devices) with 500 ms integration time. […] The % response was fit to a four-parameter logistic equation using ACTIVITYBASE 4.0 to determine the absolute IC50 values.

NCI-H460 (lung) = assay: Low folate & high folate in vitro proliferation assay (Alamar Blue); assay type: cell-based, human; conditions: for GI50: Homo sapiens
Description: as §1, §2
For a limited number of cell lines, compound dosing was performed under high or low folate conditions with cell viability being determined with Alamar Blue rather than an ATP dependent assay. Cells were plated and treated as described above. Proliferation was measured using Alamar Blue Cell Viability Reagent (Invitrogen), and read after approximately 1.5–4 hours incubation at 37 °C on the Envision plate reader (Perkin Elmer) with excitation at 570 nm and emission at 585 nm. The % inhibition for each sample was calculated and fit as described above.

CK1e = target: T7, CK1e (Homo sapiens, UniProt P49674); assay: CEREP protein kinase assay; assay type: biochemical
T7 construct: purchased CEREP Panlabs (Eurofins)
T7 sequence (P49674 whole entry): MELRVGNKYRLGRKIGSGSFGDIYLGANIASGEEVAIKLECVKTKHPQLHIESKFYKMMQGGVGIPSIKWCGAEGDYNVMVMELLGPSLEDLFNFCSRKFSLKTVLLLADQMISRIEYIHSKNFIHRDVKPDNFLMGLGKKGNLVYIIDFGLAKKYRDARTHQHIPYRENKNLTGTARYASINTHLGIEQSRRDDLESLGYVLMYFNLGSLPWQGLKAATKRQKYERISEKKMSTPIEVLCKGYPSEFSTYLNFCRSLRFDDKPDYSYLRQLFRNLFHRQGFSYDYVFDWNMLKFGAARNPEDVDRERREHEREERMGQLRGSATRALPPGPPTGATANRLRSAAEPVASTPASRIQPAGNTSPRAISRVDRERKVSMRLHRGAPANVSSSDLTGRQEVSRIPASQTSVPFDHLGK

PDGFRb = target: T8, PDGFRb (Homo sapiens, UniProt P09619); assay: CEREP protein kinase assay; assay type: biochemical
T8 construct: purchased CEREP Panlabs (Eurofins)

LIMK1 = target: T9, LIMK1 (Homo sapiens, UniProt P53667); assay: CEREP protein kinase assay; assay type: biochemical
T9 construct: purchased CEREP Panlabs (Eurofins)
T9 sequence (P53667 whole entry): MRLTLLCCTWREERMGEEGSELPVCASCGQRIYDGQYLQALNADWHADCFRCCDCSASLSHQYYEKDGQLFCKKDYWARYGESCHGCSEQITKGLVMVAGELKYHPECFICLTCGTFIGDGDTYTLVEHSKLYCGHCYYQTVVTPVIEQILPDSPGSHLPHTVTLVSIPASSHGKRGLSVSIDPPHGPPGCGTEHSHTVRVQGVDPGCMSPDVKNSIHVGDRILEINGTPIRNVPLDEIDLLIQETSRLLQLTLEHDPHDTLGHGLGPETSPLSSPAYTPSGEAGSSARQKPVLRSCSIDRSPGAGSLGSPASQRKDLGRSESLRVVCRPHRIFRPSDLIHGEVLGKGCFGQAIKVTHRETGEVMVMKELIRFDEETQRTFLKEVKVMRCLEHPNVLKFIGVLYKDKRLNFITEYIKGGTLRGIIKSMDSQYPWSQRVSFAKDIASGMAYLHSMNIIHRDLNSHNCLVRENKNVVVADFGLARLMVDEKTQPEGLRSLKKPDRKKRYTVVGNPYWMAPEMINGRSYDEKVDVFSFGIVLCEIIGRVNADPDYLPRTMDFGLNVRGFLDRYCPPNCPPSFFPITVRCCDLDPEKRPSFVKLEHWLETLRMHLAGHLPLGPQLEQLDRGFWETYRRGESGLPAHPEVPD

SIK = target: T10, SIK (Homo sapiens, UniProt P57059); assay: CEREP protein kinase assay; assay type: biochemical
T10 construct: purchased CEREP Panlabs (Eurofins)
T10 sequence (P57059 whole entry): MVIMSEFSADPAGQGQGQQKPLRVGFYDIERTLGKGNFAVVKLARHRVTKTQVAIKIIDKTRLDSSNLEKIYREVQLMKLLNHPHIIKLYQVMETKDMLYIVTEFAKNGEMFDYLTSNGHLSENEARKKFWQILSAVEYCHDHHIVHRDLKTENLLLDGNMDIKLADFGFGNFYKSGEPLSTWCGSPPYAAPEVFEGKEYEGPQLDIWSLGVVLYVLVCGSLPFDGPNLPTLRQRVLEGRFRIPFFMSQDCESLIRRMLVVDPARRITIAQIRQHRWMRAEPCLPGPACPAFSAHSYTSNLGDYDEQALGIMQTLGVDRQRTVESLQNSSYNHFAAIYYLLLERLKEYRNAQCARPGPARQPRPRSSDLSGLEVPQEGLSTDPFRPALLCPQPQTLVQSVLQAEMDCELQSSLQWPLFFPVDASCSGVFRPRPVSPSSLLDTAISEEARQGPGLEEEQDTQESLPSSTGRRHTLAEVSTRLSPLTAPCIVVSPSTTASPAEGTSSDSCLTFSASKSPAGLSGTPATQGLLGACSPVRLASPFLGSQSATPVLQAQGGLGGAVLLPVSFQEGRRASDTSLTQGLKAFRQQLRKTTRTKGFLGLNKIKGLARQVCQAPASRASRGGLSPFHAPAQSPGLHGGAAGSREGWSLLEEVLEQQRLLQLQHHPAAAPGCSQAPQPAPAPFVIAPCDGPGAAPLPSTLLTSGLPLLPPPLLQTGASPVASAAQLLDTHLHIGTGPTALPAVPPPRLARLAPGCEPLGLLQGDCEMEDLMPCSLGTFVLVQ

T1 sequence (Q9H4B4 whole entry): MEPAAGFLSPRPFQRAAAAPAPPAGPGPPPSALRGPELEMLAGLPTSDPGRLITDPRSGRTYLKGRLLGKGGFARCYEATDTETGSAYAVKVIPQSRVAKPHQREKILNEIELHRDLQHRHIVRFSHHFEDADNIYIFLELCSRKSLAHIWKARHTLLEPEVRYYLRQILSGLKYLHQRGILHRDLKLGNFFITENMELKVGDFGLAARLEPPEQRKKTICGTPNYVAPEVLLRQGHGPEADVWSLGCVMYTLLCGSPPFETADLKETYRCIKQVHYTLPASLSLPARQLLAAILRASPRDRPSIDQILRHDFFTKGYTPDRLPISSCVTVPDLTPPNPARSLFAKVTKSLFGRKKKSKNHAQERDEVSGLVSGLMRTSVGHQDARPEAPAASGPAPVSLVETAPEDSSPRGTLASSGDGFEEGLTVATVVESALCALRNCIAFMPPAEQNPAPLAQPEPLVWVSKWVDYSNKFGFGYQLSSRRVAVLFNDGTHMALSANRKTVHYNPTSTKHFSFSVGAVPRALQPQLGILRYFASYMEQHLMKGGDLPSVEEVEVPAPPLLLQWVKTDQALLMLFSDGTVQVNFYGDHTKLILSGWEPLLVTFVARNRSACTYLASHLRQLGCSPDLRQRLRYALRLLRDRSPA

O=c1[nH]ccc2cc(F)c(NS(=O)(=O)c3ccc(N4CC[C@@H](O)C4)s3)cc12 [LSN3213128, N-(6-Fluoro-1-oxo-1,2-dihydroisoquinolin-7-yl)-5-[(3R)-3-hydroxypyrrolidin-1-yl]thiophene-2-sulfonamide]
inhibition at 0.2 µM (PLK3; @ 0.2 uM): 13.4% | inhibition at 2 µM (PLK3; @ 2 uM): 12% | inhibition at 20 µM (PLK3; @ 20 uM): 60.5% | EC50 (cell lines of Table 1; low folate media, 12 cell lines): 4.9 ± 2.6 nM | EC50 (cell lines of Table 1; normal RPMI, 8 cell lines): 1210 nM | inhibition at 0.2 µM (ALK; @ 0.2 uM): -16.7% | inhibition at 2 µM (ALK; @ 2 uM): 7.47% | inhibition at 20 µM (ALK; @ 20 uM): 31.8% | inhibition at 0.2 µM (CDK4; @ 0.2 uM): -1.51% | inhibition at 2 µM (CDK4; @ 2 uM): 2.45% | inhibition at 20 µM (CDK4; @ 20 uM): 37.2% | inhibition at 0.2 µM (RON; @ 0.2 uM): -17.2% | inhibition at 2 µM (RON; @ 2 uM): -11.8% | inhibition at 20 µM (RON; @ 20 uM): 33.9% | inhibition at 0.2 µM (FGFR1; @ 0.2 uM): -9.3% | inhibition at 2 µM (FGFR1; @ 2 uM): 0.634% | inhibition at 20 µM (FGFR1; @ 20 uM): 10.3% | inhibition at 0.2 µM (P38a; @ 0.2 uM): -2.24% | inhibition at 2 µM (P38a; @ 2 uM): -2.52% | inhibition at 20 µM (P38a; @ 20 uM): 32.3% | % Inhibition (AMPKA; @ 0.2 uM): -3.69 (26.6, n=2) % | % Inhibition (AMPKA; @ 2 uM): 9.14 (16.7, n=2) % | % Inhibition (AMPKA; @ 20 uM): 9.08 (3.34, n=2) % | IC50 (MDA-MB-231; MDA-MB-231, breast, read-out: ABS_IC50_VALUE): 20 nM | IC50 (MDA-MB-231; MDA-MB-231, Cell Titer Glo, two doubling times, read-out: IC50 by CTG): 7.6 nM | anti-proliferative effects on hypoxanthine supplementation (NCI-H460 (lung); 32 μM hypoxanthine): completely rescued | GI50 (NCI-H460 (lung); RPMI media, read-out: Alamar Blue GI50 Regular folate): 3470 ± 2090 nM | GI50 (NCI-H460 (lung); low folate RPMI media, read-out: Alamar Blue GI50 Low folate): 16.4 ± 5.1 nM | inhibition at 0.2 µM (CK1e; @ 0.2 uM): -4.69% | inhibition at 2 µM (CK1e; @ 2 uM): -1.12% | inhibition at 20 µM (CK1e; @ 20 uM): 7.65% | inhibition at 0.2 µM (PDGFRb; @ 0.2 uM): -85.9% | inhibition at 2 µM (PDGFRb; @ 2 uM): -63.2% | inhibition at 20 µM (PDGFRb; @ 20 uM): -71% | inhibition at 0.2 µM (LIMK1; @ 0.2 uM): -7.18% | inhibition at 2 µM (LIMK1; @ 2 uM): 5.89% | inhibition at 20 µM (LIMK1; @ 20 uM): 0.523% | inhibition at 0.2 µM (SIK; @ 0.2 uM): -1.42% | inhibition at 2 µM (SIK; @ 2 uM): 3.69% | inhibition at 20 µM (SIK; @ 20 uM): 3.12%
